Results from publication PMC8058163 (Clinical pharmacology and therapeutics, 2020).
Like-named read-outs stand apart in the source and are kept apart here.

Columns and labels:
[1] = clinical; details: both, human, in vivo

Row | SMILES | AUC0–72 (human, in vivo) | Cmax (human, in vivo) | AUC0–72 (human, in vivo, po) | Cmax (human, in vivo, po) | AUC(0-inf) [1] | AUC(0-t) [1] | CL renal [1] | Cmax [1] | AUC(0-inf) ([1]; po) | AUC(0-t) ([1]; po) | CL renal ([1]; po) | Cmax ([1]; po) | AUC0–24, goldenseal exposure / baseline ratio (both, human, in vivo) | ClR, goldenseal exposure / baseline ratio (both, human, in vivo) | Cmax, goldenseal exposure / baseline ratio (both, human, in vivo) | half-life ([1]; po) | increase of geometric mean Cmax (in the presence of goldenseal) | increase of systemic exposure (in the presence of goldenseal)
1 | CC(C)c1nc(N(C)S(C)(=O)=O)nc(-c2ccc(F)cc2)c1/C=C/[C@@H]1C[C@@H](O)CC(=O)O1 [Rosuvastatin lactone, rosuvastatin lactone] | 27 [23–32] nM*h | 1.5 nM | 28 [24–32] nM*h | 1.5 nM |  |  |  |  |  |  |  |  |  |  |  |  |  | 
2 | CN(C)C(=N)N=C(N)N [Metformin, metformin] |  |  |  |  | 3.8 µM·h | 3.6 µM·h | 700 mL/min | 540 nM | 5 µM·h | 4.7 µM·h | 683 mL/min | 750 nM |  |  |  |  |  | 
3 | CC(C)c1nc(N(C)S(C)(=O)=O)nc(-c2ccc(F)cc2)c1/C=C/[C@@H](O)C[C@@H](O)CC(=O)O [Rosuvastatin acid, rosuvastatin] |  |  |  |  |  | 0.06 µM·h | 247 mL/min | 7.9 nM |  | 0.059 µM·h | 257 mL/min | 7.4 nM | 1.01 [0.91–1.13] | 0.96 [0.89–1.03] | 1.08 [0.94–1.22] |  |  | 
4 | Cc1ncc2n1-c1ccc(Cl)cc1C(c1ccccc1F)=NC2 [Midazolam, midazolam] |  |  |  |  | 0.096 µM·h | 0.086 µM·h | 1.17 mL/min |  | 0.067 µM·h | 0.062 µM·h | 0.833 mL/min | 26 nM |  |  |  | 3.9 h | 31% | ~ 40%
